Data set [1] has as its target MAP kinase-interacting serine/threonine-protein kinase 1 (Homo sapiens, UniProt Q9BUB5).
The subject of another data set is PC-3. Nature of the data set: Antiproliferative activity against human PC3 cells after 72 hrs by CellTiter-Glo assay. Format: functional, cell-based. The settings on record: PC-3, 72 h. In general terms: Cellular ATP, detected with luciferase, serves as a proxy for viable cell number.
A further data set relates to HCT-116. Nature of the data set: Antiproliferative activity against human HCT116 cells after 72 hrs by CellTiter-Glo assay. It is filed as functional, cell-based. The settings on record: HCT-116, 72 h.
For the next data set, the system named is SW-620. Nature of the data set: Antiproliferative activity against human SW620 cells after 72 hrs by CellTiter-Glo assay. It is filed as functional, cell-based. The following applies: SW-620, 72 h.
The target of data set [2] is Vascular endothelial growth factor receptor 2 (Homo sapiens) (UniProt P35968). Kind of data set: Inhibition of KDR (unknown origin) at 1 uM relative to control.
Chain of Vascular endothelial growth factor receptor 2 (Homo sapiens) (P35968 whole entry): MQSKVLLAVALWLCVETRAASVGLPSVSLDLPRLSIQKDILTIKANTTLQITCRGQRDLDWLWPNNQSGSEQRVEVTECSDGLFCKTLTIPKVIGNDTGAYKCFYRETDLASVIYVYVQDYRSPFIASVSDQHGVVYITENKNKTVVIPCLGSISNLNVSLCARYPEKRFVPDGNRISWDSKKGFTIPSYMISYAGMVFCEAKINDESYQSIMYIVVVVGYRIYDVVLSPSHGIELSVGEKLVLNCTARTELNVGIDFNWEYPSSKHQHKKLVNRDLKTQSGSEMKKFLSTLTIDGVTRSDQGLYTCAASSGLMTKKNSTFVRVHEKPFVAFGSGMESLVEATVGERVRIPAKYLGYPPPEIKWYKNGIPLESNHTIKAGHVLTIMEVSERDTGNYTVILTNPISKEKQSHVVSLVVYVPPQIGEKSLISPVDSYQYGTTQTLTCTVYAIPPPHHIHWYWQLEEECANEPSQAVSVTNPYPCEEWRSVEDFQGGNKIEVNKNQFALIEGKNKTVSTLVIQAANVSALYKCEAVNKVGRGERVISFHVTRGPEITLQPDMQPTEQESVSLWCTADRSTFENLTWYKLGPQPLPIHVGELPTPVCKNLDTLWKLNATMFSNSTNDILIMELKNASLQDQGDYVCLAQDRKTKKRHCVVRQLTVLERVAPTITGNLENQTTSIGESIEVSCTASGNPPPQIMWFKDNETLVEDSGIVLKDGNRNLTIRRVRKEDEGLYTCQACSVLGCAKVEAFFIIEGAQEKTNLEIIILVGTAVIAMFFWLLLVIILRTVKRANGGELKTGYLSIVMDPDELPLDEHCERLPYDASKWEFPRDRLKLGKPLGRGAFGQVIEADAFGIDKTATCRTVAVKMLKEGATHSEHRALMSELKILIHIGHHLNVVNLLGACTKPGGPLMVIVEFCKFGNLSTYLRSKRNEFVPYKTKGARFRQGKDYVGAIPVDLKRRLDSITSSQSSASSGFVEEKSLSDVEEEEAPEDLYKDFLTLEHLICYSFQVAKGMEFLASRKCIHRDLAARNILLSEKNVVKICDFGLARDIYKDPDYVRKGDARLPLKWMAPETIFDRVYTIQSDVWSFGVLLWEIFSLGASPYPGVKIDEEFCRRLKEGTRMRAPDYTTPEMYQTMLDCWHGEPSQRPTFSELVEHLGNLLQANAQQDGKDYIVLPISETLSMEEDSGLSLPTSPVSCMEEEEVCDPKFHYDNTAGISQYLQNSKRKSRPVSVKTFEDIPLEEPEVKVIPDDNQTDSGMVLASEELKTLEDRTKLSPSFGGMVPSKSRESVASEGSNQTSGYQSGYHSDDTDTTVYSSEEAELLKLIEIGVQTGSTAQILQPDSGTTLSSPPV
The target in data set [3] is Tyrosine-protein kinase ABL1 (Homo sapiens) (UniProt P00519). Nature of the data set: Inhibition of Abl1 (unknown origin) at 1 uM relative to control.
Chain of Tyrosine-protein kinase ABL1 (Homo sapiens) (P00519 whole entry): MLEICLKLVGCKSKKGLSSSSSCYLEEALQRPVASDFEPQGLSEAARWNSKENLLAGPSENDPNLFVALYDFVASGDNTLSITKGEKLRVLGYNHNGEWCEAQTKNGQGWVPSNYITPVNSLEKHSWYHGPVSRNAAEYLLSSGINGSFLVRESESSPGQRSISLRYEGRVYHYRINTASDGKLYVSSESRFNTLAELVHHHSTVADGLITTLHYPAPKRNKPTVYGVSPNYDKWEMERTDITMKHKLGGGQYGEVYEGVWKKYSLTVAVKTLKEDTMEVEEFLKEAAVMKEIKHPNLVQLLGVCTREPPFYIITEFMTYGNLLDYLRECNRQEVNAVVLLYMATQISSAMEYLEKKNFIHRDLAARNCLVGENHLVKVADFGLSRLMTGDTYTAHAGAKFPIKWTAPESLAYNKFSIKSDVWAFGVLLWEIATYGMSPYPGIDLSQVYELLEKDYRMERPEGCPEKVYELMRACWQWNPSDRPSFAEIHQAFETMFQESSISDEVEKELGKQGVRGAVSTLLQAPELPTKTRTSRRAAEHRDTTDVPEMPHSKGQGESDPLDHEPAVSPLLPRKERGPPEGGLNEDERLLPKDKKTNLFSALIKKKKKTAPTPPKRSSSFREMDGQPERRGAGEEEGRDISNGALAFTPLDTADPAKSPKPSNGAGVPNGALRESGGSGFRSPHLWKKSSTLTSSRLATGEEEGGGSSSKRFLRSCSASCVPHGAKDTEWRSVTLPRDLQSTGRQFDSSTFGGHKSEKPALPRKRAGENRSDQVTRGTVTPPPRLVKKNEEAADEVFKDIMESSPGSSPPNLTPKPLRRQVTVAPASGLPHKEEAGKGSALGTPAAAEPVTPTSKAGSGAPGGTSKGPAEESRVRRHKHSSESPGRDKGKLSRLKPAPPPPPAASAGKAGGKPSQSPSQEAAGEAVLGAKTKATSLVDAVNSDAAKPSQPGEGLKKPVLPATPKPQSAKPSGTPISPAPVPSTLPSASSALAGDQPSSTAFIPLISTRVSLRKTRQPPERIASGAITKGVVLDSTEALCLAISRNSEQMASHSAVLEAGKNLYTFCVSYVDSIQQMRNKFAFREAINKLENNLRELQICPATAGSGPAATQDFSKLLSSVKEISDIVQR
The target in data set [4] is Proto-oncogene tyrosine-protein kinase receptor Ret (Homo sapiens) (UniProt P07949). Kind of data set: Inhibition of RET (unknown origin) at 1 uM relative to control.
Chain of Proto-oncogene tyrosine-protein kinase receptor Ret (Homo sapiens) (P07949 whole entry): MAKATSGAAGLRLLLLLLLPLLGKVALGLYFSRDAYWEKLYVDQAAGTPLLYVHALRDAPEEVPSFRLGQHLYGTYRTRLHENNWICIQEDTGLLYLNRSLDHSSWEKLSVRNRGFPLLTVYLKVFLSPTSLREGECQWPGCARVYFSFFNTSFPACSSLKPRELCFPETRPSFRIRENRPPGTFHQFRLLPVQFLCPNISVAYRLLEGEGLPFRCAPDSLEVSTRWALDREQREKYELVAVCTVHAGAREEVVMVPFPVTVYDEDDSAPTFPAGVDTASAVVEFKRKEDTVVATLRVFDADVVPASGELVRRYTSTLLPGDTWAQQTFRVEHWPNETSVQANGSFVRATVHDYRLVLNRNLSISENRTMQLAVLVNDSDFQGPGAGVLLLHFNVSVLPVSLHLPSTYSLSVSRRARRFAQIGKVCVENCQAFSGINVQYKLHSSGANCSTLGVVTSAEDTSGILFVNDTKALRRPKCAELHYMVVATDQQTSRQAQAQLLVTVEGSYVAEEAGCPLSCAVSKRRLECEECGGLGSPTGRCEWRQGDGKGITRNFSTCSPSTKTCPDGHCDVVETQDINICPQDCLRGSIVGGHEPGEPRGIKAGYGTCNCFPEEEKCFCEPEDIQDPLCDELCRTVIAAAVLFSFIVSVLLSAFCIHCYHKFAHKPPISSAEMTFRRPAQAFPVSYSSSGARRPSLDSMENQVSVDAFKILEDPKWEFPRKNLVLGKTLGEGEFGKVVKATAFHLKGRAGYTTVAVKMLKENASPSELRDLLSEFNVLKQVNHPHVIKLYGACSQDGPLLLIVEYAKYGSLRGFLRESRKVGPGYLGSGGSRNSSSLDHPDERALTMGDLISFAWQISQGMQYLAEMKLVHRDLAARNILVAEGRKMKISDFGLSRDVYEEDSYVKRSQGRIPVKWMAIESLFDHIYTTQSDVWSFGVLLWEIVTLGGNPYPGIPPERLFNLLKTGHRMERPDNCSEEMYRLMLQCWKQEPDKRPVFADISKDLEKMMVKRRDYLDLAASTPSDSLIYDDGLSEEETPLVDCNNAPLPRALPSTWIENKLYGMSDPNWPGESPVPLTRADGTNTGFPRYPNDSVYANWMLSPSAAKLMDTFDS
Data set [5] deals with Receptor-type tyrosine-protein kinase FLT3 (Homo sapiens) (UniProt P36888). Nature of the data set: Inhibition of FLT3 (unknown origin) at 1 uM relative to control.
Data set [6] addresses MAP kinase-interacting serine/threonine-protein kinase 2 (Homo sapiens, UniProt Q9HBH9).
The target in data set [7] is MAP kinase-interacting serine/threonine-protein kinase 1/2 (Homo sapiens, UniProt Q9HBH9+Q9BUB5).
Data set [8] can be described thus: Metabolic stability in mouse liver microsomes assessed as parent compound remaining at 1 uM after 30 mins by LC-ESI-TOF/MS method. It is filed as ADME, microsome. The settings on record: read-out: Stability. A general note: Liver microsomes are vesicles of endoplasmic reticulum, rich in cytochrome P450 enzymes.
A short description of data set [9]: Metabolic stability in rat liver microsomes assessed as parent compound remaining at 1 uM after 30 mins by LC-ESI-TOF/MS method. It is filed as ADME, microsome. The following applies: read-out: Stability.
Data set [10] in a line: Metabolic stability in human liver microsomes assessed as parent compound remaining at 1 uM after 30 mins by LC-ESI-TOF/MS method. Format: ADME, microsome. The following applies: read-out: Stability.
A short description of data set [11]: Oral bioavailability in Balb/c mouse at 10 mg/kg by LC-ESI-TOF/MS or LC-ESI-MS/MS method. Format: ADME, organism-based. The following applies: in vivo.
A short description of data set [12]: Oral bioavailability in Sprague-Dawley rat at 10 mg/kg by LC-ESI-TOF/MS or LC-ESI-MS/MS method. It is filed as ADME, organism-based. The settings on record: in vivo.
A short description of data set [13]: Oral bioavailability in Beagle dog at 3 mg/kg by LC-ESI-TOF/MS or LC-ESI-MS/MS method. Format: ADME, organism-based, Canis lupus familiaris. The settings on record: in vivo.
Data set [14] is described as follows: Oral bioavailability in cynomolgus monkey at 3 mg/kg by LC-ESI-TOF/MS or LC-ESI-MS/MS method. The following applies: in vivo. It is filed as ADME, organism-based, Macaca fascicularis.
Data set [15] concerns the target T1, Serine/threonine-protein kinase 17A (Homo sapiens) (UniProt Q9UEE5).
T1 sequence (whole entry): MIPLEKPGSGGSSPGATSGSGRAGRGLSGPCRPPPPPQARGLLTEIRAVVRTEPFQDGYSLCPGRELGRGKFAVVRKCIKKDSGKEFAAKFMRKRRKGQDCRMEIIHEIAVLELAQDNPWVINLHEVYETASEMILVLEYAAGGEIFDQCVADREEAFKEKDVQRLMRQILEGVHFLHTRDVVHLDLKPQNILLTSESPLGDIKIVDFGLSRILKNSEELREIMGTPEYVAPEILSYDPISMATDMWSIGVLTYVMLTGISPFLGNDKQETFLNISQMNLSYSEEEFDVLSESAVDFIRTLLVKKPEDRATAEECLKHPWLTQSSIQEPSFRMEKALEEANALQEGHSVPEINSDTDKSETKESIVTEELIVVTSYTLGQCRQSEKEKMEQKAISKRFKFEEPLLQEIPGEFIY
Nature of the data set: Inhibition of DRAK1 (unknown origin) at 1 uM relative to control.

The target of data set [16] is T2, Serine/threonine-protein kinase BRSK1 (Homo sapiens) (UniProt Q8TDC3).
T2 sequence (whole entry): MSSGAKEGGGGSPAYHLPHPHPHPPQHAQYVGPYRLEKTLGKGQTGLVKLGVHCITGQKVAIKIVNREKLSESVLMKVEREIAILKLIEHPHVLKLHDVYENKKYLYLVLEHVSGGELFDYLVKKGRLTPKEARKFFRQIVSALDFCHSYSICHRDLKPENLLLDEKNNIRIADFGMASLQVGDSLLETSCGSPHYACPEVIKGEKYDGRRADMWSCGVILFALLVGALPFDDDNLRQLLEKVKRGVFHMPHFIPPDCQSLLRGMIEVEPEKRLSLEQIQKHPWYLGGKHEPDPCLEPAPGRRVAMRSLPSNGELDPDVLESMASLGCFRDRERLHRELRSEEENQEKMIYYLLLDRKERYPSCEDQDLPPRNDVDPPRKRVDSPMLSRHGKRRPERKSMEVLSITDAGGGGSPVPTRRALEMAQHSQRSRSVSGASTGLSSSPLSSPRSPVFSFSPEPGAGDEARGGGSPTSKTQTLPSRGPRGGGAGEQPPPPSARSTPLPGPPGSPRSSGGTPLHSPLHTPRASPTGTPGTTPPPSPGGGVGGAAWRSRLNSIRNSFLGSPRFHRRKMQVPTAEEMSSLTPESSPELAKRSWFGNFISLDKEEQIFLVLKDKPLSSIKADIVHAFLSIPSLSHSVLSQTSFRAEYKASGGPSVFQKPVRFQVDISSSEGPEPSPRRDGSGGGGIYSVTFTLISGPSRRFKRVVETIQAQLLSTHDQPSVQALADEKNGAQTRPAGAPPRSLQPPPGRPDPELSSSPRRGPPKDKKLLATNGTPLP
Kind of data set: Inhibition of BRSK1 (unknown origin) at 1 uM relative to control.

Data set [17] concerns the target Dual specificity tyrosine-phosphorylation-regulated kinase 2 (Homo sapiens) (UniProt Q92630). Nature of the data set: Inhibition of DYRK2 (unknown origin) at 1 uM relative to control.
Another data set is described as follows: physchem. The settings on record: octanol/water.
A further data set in a line: in vitro. The following applies: human, Caco-2.
Data set [18] concerns the target Platelet-derived growth factor receptor alpha (Homo sapiens) (UniProt P16234). Kind of data set: Inhibition of PDGFRA (unknown origin) at 1 uM relative to control.
The target in data set [19] is Tyrosine-protein kinase Yes (Homo sapiens) (UniProt P07947). Nature of the data set: Inhibition of YES1 (unknown origin) at 1 uM relative to control.
Chain of Tyrosine-protein kinase Yes (Homo sapiens) (P07947 2-543 limits assumed): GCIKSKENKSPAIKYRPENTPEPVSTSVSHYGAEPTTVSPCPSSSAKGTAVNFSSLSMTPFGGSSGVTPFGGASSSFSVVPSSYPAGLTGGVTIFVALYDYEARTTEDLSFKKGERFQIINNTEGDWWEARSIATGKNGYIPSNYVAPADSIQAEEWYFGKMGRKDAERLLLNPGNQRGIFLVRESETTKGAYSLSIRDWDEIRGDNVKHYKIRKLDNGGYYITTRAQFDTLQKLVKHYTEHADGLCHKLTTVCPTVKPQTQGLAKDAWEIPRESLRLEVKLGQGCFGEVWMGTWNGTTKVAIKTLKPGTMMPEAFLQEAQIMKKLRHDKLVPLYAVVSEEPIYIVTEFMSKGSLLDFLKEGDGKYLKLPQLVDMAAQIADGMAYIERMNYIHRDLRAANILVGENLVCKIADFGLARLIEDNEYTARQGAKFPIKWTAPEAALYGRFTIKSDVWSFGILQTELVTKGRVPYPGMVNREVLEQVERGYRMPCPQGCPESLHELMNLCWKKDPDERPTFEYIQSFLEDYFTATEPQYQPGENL
For data set [20], the target named is Dual specificity tyrosine-phosphorylation-regulated kinase 1A (Homo sapiens) (UniProt Q13627). Nature of the data set: Inhibition of DYRK1A (unknown origin) at 1 uM relative to control.
Data set [21] has as its target Platelet-derived growth factor receptor beta (Homo sapiens) (UniProt P09619). Kind of data set: Inhibition of PDGFRB (unknown origin) at 1 uM relative to control.
In data set [22] the target is Tyrosine-protein kinase Lck (Homo sapiens) (UniProt P06239). Kind of data set: Inhibition of LCK (unknown origin) at 1 uM relative to control.
The target of data set [23] is Aurora kinase A (Homo sapiens) (UniProt O14965). Kind of data set: Inhibition of aurora A (unknown origin) at 1 uM relative to control.

Bounds are passed on as bounds.

Chain of MAP kinase-interacting serine/threonine-protein kinase 2 (Q9HBH9 whole entry): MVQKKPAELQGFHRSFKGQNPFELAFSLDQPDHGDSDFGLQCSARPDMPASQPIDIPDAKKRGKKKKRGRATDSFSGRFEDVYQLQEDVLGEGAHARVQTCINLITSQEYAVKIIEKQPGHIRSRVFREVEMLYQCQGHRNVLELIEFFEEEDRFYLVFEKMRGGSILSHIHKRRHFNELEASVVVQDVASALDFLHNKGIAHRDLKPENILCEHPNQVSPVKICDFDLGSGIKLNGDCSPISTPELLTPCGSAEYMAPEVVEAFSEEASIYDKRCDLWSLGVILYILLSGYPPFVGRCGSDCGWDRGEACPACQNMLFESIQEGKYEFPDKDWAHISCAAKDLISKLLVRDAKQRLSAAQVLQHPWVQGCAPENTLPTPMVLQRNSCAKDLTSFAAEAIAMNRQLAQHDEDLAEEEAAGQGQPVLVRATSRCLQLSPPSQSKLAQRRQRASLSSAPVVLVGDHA
Chain of MAP kinase-interacting serine/threonine-protein kinase 1 (Q9BUB5 whole entry): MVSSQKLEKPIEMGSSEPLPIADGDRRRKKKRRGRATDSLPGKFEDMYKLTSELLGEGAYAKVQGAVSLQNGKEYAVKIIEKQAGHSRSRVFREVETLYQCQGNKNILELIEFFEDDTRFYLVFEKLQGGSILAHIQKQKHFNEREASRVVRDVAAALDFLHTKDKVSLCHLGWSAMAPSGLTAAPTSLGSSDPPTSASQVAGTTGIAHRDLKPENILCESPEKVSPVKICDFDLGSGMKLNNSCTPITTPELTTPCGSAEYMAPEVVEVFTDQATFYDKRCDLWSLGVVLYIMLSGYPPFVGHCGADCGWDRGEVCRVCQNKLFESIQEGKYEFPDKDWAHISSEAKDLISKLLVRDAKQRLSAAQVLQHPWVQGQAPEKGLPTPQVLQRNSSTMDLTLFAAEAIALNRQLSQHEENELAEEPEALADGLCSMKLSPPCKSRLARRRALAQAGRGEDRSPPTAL

In general, IC50 refers to the concentration needed to halve the response being measured. Regarding `NC(=O)c1ccc(Nc2ncnc3[nH]cnc23)cc1`, the midpoint of inhibition in data set [1], the IC50, lay at 60 nM.

Broadly, the EC50 is the concentration at which the effect is half-maximal. For orientation: inhibition means how much of the control response was suppressed. With `CC1(C)NC(=O)c2ccc(Nc3cc(NC(=O)C4CC4)ncn3)c(=O)n21`, the EC50 in the data set on PC-3, in the data set on HCT-116 and in the data set on SW-620 was greater than 30000 nM in each case. Besides, the inhibition in data set [2], in data set [3], in [4] and in [5] was 4% throughout.

The compound `NC(=O)c1ccc(Nc2ccncn2)c(=O)[nH]1` gave an IC50 in [1] of 3000 nM.

Take `O=C1NCc2cc(Nc3cc(NC(=O)C4CC4)ncn3)ccc21`: the results for the IC50 in data set [1], in data set [6] and in data set [7] were 1.9 nM, 5.7 nM and 430 nM, respectively.

Regarding `Nc1ncnc(Nc2cc(Cl)c3n(c2=O)C2(CCCCC2)NC3=O)c1Cl`, the IC50 in data set [6] is 0.36 nM; in data set [7], 0.084 nM.

On to `Cc1n[nH]c(C)c1-c1ccc(C2CCCN2)cc1` (stereo unspecified), for which the IC50 in [1] came out at 4700 nM.

In data set [1], `c1cc(-c2cc(C3CCNCC3)[nH]n2)ccn1` gave an IC50 of 5500 nM.

With `c1cnn2c(-c3ccncc3)cnc2c1`, the IC50 in data set [1] was 1800 nM.

In general, bioavailability refers to dose-corrected exposure relative to a reference, in per cent. Take `Cc1cc(Nc2cc(N)ncn2)c(=O)n2c1C(=O)NC21CCC(F)(F)CC1`: the remaining at 0.5 h, 1 µM is 99% in data set [8], 100% in data set [9] and 97% in data set [10]. Moreover, the bioavailability in data set [11] was 85%; in data set [12], 56%; in [13], greater than 100%; in [14], 58%. The compound also had an inhibition in data set [15] of 68%. It took 1.4 nM to reach half-maximal inhibition in data set [1] (IC50).

Consider `NC(=O)c1ccc(Nc2ccncn2)cc1`, for which the IC50 in data set [1] is 690 nM.

Consider `CC1(C)NC(=O)c2ccc(Nc3ccncn3)cc21`, for which the values for the IC50 in data set [1], in data set [6] and in [7] were 100 nM, 61 nM and 4400 nM, respectively.

As a reminder, the logP is the decadic logarithm of the partition coefficient of the neutral form, usually between octanol and water. As usually defined, the Papp A→B is the apparent permeability from the apical to the basolateral side of a cell layer. In the case of `CC1(C)NC(=O)c2c(Cl)cc(Nc3cc(N)ncn3)c(=O)n21`, the inhibition was 74% in data set [2], 88% in [15], 52% in data set [16] and 67% in data set [17]. Moreover, the remaining at 0.5 h, 1 µM worked out at 95% in data set [8], 100% in data set [9] and 100% in data set [10]. For the same compound, the bioavailability was 79% in data set [11], 50% in data set [12], greater than 100% in [13] and 54% in [14]. The same compound displayed a logP in “physchem” of 1.8. The same compound yielded a Papp A→B at 2 h, 5 µM in “in vitro” of 0.9 ×10⁻⁶ cm/s.

Take `NC(=O)c1cccn2c(-c3cccnc3)cnc12`: the IC50 in [1] is 6400 nM.

Turning to `c1ccc(-c2n[nH]c3ccc(-c4ccncc4)cc23)cc1`, the IC50 in [1] was 3800 nM.

Regarding `CC1(c2cccc(Cl)c2)NC(=O)c2c(Cl)cc(Nc3cc(NC(=O)C4CC4)ncn3)c(=O)n21` (stereo unspecified), the inhibition in data set [18], in [2], in [3], in [4], in [5] and in [19] was 10% each time. For the same compound, the inhibition in data set [20], in [21], in data set [22] and in data set [23] was 10% in each case. Besides, the EC50 with HCT-116 was 2700 nM; with SW-620, 2800 nM.

Compound `O=C1NCc2cc(Nc3ncnc4[nH]cnc34)ccc21` gave an IC50 in [1] of 23 nM.

Turning to `CC1NC(=O)c2ccc(Nc3ccncn3)cc21` (stereo unspecified), the IC50 in [1] turned out to be 28 nM; in data set [6] it was 45 nM; in data set [7], 28000 nM.
